{"source": "patent US20210283091A1", "about": "“DECREASING IMMUNE ACTIVITY THROUGH MODULATION OF POSTCELLULAR SIGNALING FACTORS” (FLAGSHIP PIONEERING INNOVATIONS V, INC., priority 2018, published 2021)", "key": {"IRF": {"system": "IRF", "assay": "IRF reporter activity in THP1-Dual monocytes co-cultured with treated A20 cells", "assay_type": "cell-based, human", "details": "A20 cells treated 24 hours, then co-culture with THP1-Dual cells 24 hours", "experimental": "(§1) A20 B-cell leukemia cells were treated with either control (DMSO) or various doses of RSL3, for 24 hours prior to co-culture with THP1-Dual cells for an additional 24 hours. RSL3 was purchased from Selleckchem (Houston, Tex.) and dissolved in DMSO. Subsequently, the THP1 supernatants were assessed for NFKB or IRF reporter activity. A20 cells were acquired from ATCC and THP1-Dual cells acquired from InvivoGen (San Diego, Calif.). Both cell types were cultured in 96-well plates for the duration of the assay. 50,000 A20 cells were plated 24 hours prior to dosing with RSL3, with a final DMSO concentration of 0.5%. 24 hours post-treatment, THP1-Dual cells (25,000 cells/well) were added to the A20 cells. 24 hours later, 30 μl of supernatant was mixed with either 200 μl QuantiBlue (InvivoGen, San Diego, Calif.) or 50 μl QuantiLuc and absorbance or luminescence was recorded on a Molecular Devices plate reader."}, "[1]": {"system": "Caki-1 renal cell carcinoma cells", "assay": "Viability of Caki-1 renal cell carcinoma cells treated with ferroptosis inducer, with or without Ferrostatin-1", "assay_type": "cell-based", "details": "various doses, 24 hours treatment"}, "NFKB [2]": {"system": "NFKB", "assay": "NFKB reporter activity in THP1-Dual monocytes co-cultured with treated A20 cells", "assay_type": "cell-based, human", "details": "A20 cells treated 24 hours, then co-culture with THP1-Dual cells 24 hours", "experimental": "A20 B-cell leukemia cells were treated with either control (DMSO) or various doses of RSL3, for 24 hours prior to co-culture with THP1-Dual cells for an additional 24 hours. RSL3 was purchased from Selleckchem (Houston, Tex.) and dissolved in DMSO. Subsequently, the THP1 supernatants were assessed for NFKB or IRF reporter activity.\nA20 cells were acquired from ATCC and THP1-Dual cells acquired from InvivoGen (San Diego, Calif.). Both cell types were cultured in 96-well plates for the duration of the assay. 50,000 A20 cells were plated 24 hours prior to dosing with RSL3, with a final DMSO concentration of 0.5%. 24 hours post-treatment, THP1-Dual cells (25,000 cells/well) were added to the A20 cells. 24 hours later, 30 μl of supernatant was mixed with either 200 μl QuantiBlue (InvivoGen, San Diego, Calif.) or 50 μl QuantiLuc and absorbance or luminescence was recorded on a Molecular Devices plate reader.\nA20 lymphoma cells were treated with various doses (e.g. 0.002, 0.005, 0.014, 0.041, 0.123, 0.370, 1.111, 3.333 and 10 μM) of a GPX4 inhibitor (RSL3, ML162 or ML210) in the presence or absence of 1 μM Ferrostatin-1 for 24 hours. ML162 was purchased from Cayman Chemical Company Inc and resuspended in DMSO. ML210 was purchased from Sigma-Aldrich and resuspended in DMSO. A20 lymphoma cells were also treated with DMSO as a negative control. After treatment with DMSO or a GPX4 inhibitor for 24 hours, the A20 lymphoma cells were co-cultured with THP1-Dual cells for an additional 24 hours. Subsequently, the THP1 supernatant was assessed for NFKB reporter activity. A20 cells were acquired from ATCC and THP1-Dual cells were acquired from InvivoGen (San Diego, Calif.). Both cell types were cultured in 96-well plates for the duration of the assay."}, "[3]": {"system": "A20 B-cell leukemia cells", "assay": "Viability of A20 cells treated with GPX4 inhibitor, with or without Ferrostatin-1", "assay_type": "cell-based", "details": "various doses, 24 hours treatment"}, "NFKB [4]": {"system": "NFKB", "assay": "NFKB reporter activity in THP1-Dual monocytes co-cultured with treated Caki-1 cells", "assay_type": "cell-based, human", "details": "Caki-1 cells treated 24 hours, then co-culture with THP1-Dual cells 24 hours", "experimental": "Caki-1 renal cell carcinoma cells were treated with either control (DMSO) or various doses of Erastin, for 24 hours prior to co-culture with THP1-Dual cells for an additional 24 hours. Erastin was purchased from Selleckchem (Houston, Tex.) and dissolved in DMSO. Subsequently, the THP1 supernatants were assessed for NFKB or IRF reporter activity. Caki-1 cells were acquired from ATCC and THP1-Dual cells acquired from InvivoGen (San Diego, Calif.). Both cell types were cultured in 96-well plates for the duration of the assay. 7.500 Caki-1 cells were plated 24 hours prior to dosing with Erastin, with a final DMSO concentration of 0.5%. 24 hours post-treatment, THP1-Dual cells (25,000 cells/well) were added to the Caki-1 cells. 24 hours later, 30 μl of supernatant was mixed with either 200 μl QuantiBlue (InvivoGen) or 50 μl QuantiLuc and absorbance or luminescence was recorded on a Molecular Devices plate reader. Caki-1 renal cell carcinoma cells were treated with either control (DMSO) or various doses of RSL3, for 24 hours prior to co-culture with THP1-Dual cells for an additional 24 hours. RSL3 was purchased from Selleckchem and dissolved in DMSO. Subsequently, the THP1 supernatants were assessed for NFKB or IRF reporter activity. Caki-1 cells were acquired from ATCC and THP1-Dual cells acquired from InvivoGen (San Diego, Calif.). Both cell types were cultured in 96-well plates for the duration of the assay. 7.500 Caki-1 cells were plated 24 hours prior to dosing with […], with a final DMSO concentration of 0.5%. 24 hours post-treatment, THP1-Dual cells (25,000 cells/well) were added to the Caki-1 cells. 24 hours later, 30 μl of supernatant was mixed with either 200 μl QuantiBlue (InvivoGen, San Diego, Calif.) or 50 μl QuantiFuc and absorbance or luminescence was recorded on a Molecular Devices plate reader. […] Subsequently, the THP1 supernatant was assessed for NFKB reporter activity. […]"}, "[5]": {"system": "Jurkat T cell leukemia cells", "assay": "Viability of Jurkat T cell leukemia cells treated with RSL3", "assay_type": "cell-based", "details": "various doses, 24 hours treatment"}, "NFKB [6]": {"system": "NFKB", "assay": "NFKB reporter activity in THP1-Dual monocytes co-cultured with treated Jurkat cells", "assay_type": "cell-based, human", "details": "Jurkat cells treated 24 hours, then co-culture with THP1-Dual cells 24 hours", "experimental": "as §1, with “Jurkat T cell” for “A20 B-cell”, “Jurkat” for “A20”, “100,000 Jurkat” for “50,000 A20”"}}, "note": "“Also recorded” adds a separate entry of the source."}
{"smiles": "COC(=O)c1ccc([C@H]2c3[nH]c4ccccc4c3C[C@H](C(=O)OC)N2C(=O)CCl)cc1", "note": "[RSL3]", "values": [{"measurement": "IRF signaling in THP1 monocytes", "setting": "IRF", "value": "elicited"}, {"measurement": "viability of Caki-1 cells", "setting": "[1]", "value": "negatively affected the viability; also recorded: decreased viability of the cells in a dose dependent manner"}, {"measurement": "NFKB signaling in THP1 monocytes", "setting": "NFKB [2]", "value": "elicited NFKB; also recorded: increased NFKB activity in THP1 cells in a dose dependent manner"}, {"measurement": "viability of A20 cells", "setting": "[3]", "value": "negatively affected the viability; also recorded: decreased viability of the cells in a dose dependent manner"}, {"measurement": "NFKB signaling in THP1 monocytes", "setting": "NFKB [4]", "value": "elicited NFKB signaling; also recorded: increased NFKB activity in THP1 cells in a dose dependent manner"}, {"measurement": "viability of Jurkat T cell leukemia cells", "setting": "[5]", "value": "negatively affected the viability"}, {"measurement": "NFKB signaling in THP1 monocytes", "setting": "NFKB [6]", "value": "elicited NFKB signaling"}]}
